Measured values: the supplement of paper PMC10307832

Compound: O=C(/C=C/c1cccnc1)NCCCCC1CCN(C(=O)c2ccccc2)CC1 [Daporinad] + N=C(N)NC(=N)NCCc1ccccc1 [Phenformin] (partner 250 µM)
Test: relative viability (nuclei count vs DMSO), 5 days (fraction); higher = more cells survive
Conditions: first compound 0.01581 µM
Summary of the method: (§1)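 Lung cancer cell lines in 1536-well plates were dosed by pin tool the day after seeding, either with one drug alone or with a fixed anchor-drug dose plus five library-drug doses (not always all listed) in √10 steps. After 5 days, cells were fixed and their nuclei stained in one step (final 0.05% Triton X-100, 1% formaldehyde, 1 ug/ml Hoechst), then counted on 4× images. Relative viability is the nuclei count in treated wells divided by that in vehicle wells. Values are medians of duplicate plates.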

Row | Cell Line | relative viability
1 | A549 | 0.156
2 | NCI-H1623 | 0.591
3 | NCI-H1563 | 0.626

Compound: COc1cc(Nc2ncc(F)c(Nc3ccc4c(n3)NC(=O)C(C)(C)O4)n2)cc(OC)c1OC [R406] + CC(=O)c1c(C)c2cnc(Nc3ccc(N4CCNCC4)cn3)nc2n(C2CCCC2)c1=O [Palbociclib] (partner 0.5 µM)
Test: as above
Conditions: first compound 0.08 µM
Summary of the method: as §1

Row | Cell Line | relative viability
4 | NCI-H522 | 1.11
5 | NCI-H2342 | 0.518
6 | NCI-H838 | 0.227
7 | NCI-H1650 | 0.337
8 | NCI-H1993 | 0.651
9 | NCI-H441 | 0.214
10 | PC-14 | 0.58
11 | LCLC-103H | 0.45
12 | NCI-H2126 | 0.347
13 | EMC-BAC-2 | 0.518
14 | NCI-H2085 | 0.468
15 | HCC-366 | 0.36
16 | NCI-H1666 | 0.653
17 | NCI-H647 | 0.387
18 | LK-2 | 0.592
19 | NCI-H2087 | 0.231
20 | NCI-H358 | 0.12
21 | NCI-H2170 | 0.379
22 | H3255 | 0.295
23 | COR-L23 | 0.224
24 | COR-L 105 | 0.374
25 | LOU-NH91 | 0.532
26 | ChaGo-K-1 | 0.768
27 | NCI-H1793 | 0.352
28 | NCI-H2405 | 0.52
29 | NCI-H1648 | 0.276

Same assay, conditions: first compound 0.253 µM

Row | Cell Line | relative viability
30 | NCI-H522 | 0.916
31 | NCI-H2342 | 0.508
32 | NCI-H838 | 0.236
33 | NCI-H1650 | 0.345
34 | NCI-H1993 | 0.667
35 | NCI-H441 | 0.191
36 | PC-14 | 0.666
37 | LCLC-103H | 0.507
38 | NCI-H2126 | 0.357
39 | EMC-BAC-2 | 0.538
40 | NCI-H2085 | 0.459
41 | HCC-366 | 0.465
42 | NCI-H1666 | 0.662
43 | NCI-H647 | 0.37
44 | LK-2 | 0.679
45 | NCI-H2087 | 0.26
46 | NCI-H358 | 0.192
47 | NCI-H2170 | 0.393
48 | H3255 | 0.331
49 | COR-L23 | 0.346
50 | COR-L 105 | 0.386
51 | LOU-NH91 | 0.547
52 | ChaGo-K-1 | 0.98
53 | NCI-H1793 | 0.309
54 | NCI-H2405 | 0.561
55 | NCI-H1648 | 0.275

Same assay, conditions: first compound 0.8 µM

Row | Cell Line | relative viability
56 | NCI-H522 | 0.969
57 | NCI-H2342 | 0.504
58 | NCI-H838 | 0.247
59 | NCI-H1650 | 0.396
60 | NCI-H1993 | 0.611
61 | NCI-H441 | 0.204
62 | PC-14 | 0.735
63 | LCLC-103H | 0.529
64 | NCI-H2126 | 0.313
65 | EMC-BAC-2 | 0.508
66 | NCI-H2085 | 0.45
67 | HCC-366 | 0.387
68 | NCI-H1666 | 0.678
69 | NCI-H647 | 0.426
70 | LK-2 | 0.854
71 | NCI-H2087 | 0.26
72 | NCI-H358 | 0.126
73 | NCI-H2170 | 0.452
74 | H3255 | 0.336
75 | COR-L23 | 0.342
76 | COR-L 105 | 0.39
77 | LOU-NH91 | 0.499
78 | ChaGo-K-1 | 1.02
79 | NCI-H1793 | 0.253
80 | NCI-H2405 | 0.517
81 | NCI-H1648 | 0.301

Same assay, conditions: first compound 2.53 µM

Row | Cell Line | relative viability
82 | NCI-H522 | 0.899
83 | NCI-H2342 | 0.474
84 | NCI-H838 | 0.179
85 | NCI-H1650 | 0.117
86 | NCI-H1993 | 0.683
87 | NCI-H441 | 0.137
88 | PC-14 | 0.346
89 | LCLC-103H | 0.46
90 | NCI-H2126 | 0.349
91 | EMC-BAC-2 | 0.44
92 | NCI-H2085 | 0.455
93 | HCC-366 | 0.262
94 | NCI-H1666 | 0.675
95 | NCI-H647 | 0.261
96 | LK-2 | 0.574
97 | NCI-H2087 | 0.23
98 | NCI-H358 | 0.0867
99 | NCI-H2170 | 0.264
100 | H3255 | 0.358
101 | COR-L23 | 0.166
102 | COR-L 105 | 0.316
103 | LOU-NH91 | 0.552
104 | ChaGo-K-1 | 0.928
105 | NCI-H1793 | 0.28
106 | NCI-H2405 | 0.364
107 | NCI-H1648 | 0.296

Same assay, conditions: first compound 8 µM

Row | Cell Line | relative viability
108 | NCI-H522 | 0.719
109 | NCI-H2342 | 0.509
110 | NCI-H838 | 0.107
111 | NCI-H1650 | 0.0985
112 | NCI-H1993 | 0.607
113 | NCI-H441 | 0.118
114 | PC-14 | 0.146
115 | LCLC-103H | 0.319
116 | NCI-H2126 | 0.276
117 | EMC-BAC-2 | 0.378
118 | NCI-H2085 | 0.36
119 | HCC-366 | 0.0616
120 | NCI-H1666 | 0.638
121 | NCI-H647 | 0.0695
122 | LK-2 | 0.542
123 | NCI-H2087 | 0.243
124 | NCI-H358 | 0.0882
125 | NCI-H2170 | 0.419
126 | H3255 | 0.284
127 | COR-L23 | 0.157
128 | COR-L 105 | 0.33
129 | LOU-NH91 | 0.538
130 | ChaGo-K-1 | 0.706
131 | NCI-H1793 | 0.153
132 | NCI-H2405 | 0.2
133 | NCI-H1648 | 0.303
